Where two headings read alike, the source gives them in different places.
How the values were obtained:
HIV-IIIb = experiment: Test A: Antiviral Assay in MT4 Cells; type: cell-based, HIV-1; settings: for inhibition at 0.01 µM: read-out: % inhibition at 0.01 μM; for inhibition at 0.2 µM: read-out: % inhibition at 0.20 μM
Experimental: (§1) MT-4 cells were next mixed with HIV-IIIb at a multiplicity of infection (m.o.i.) of 0.003 for 1 hour, after which time 35 μL of virus/cell mixture (2000 cells) was immediately added to each well containing 40 μL of diluted compound. The plates were then incubated at 37° C. for 5 days. After 5 days of incubation, 25 μl of 2× concentrated CellTiter-Glo Reagent (catalog #G7571, Promega Biosciences, Inc., Madison, Wis.) was added to each well containing MT-4 cells. Cell lysis was carried out by incubating at room temperature for 10 min and then chemiluminescence was read.

[1] = Test B: Cytotoxicity Assay (same protocol as Test A, uninfected cells); type: cell-based; settings: human, uninfected MT-4 cells, CellTiter-Glo
Experimental: as §1, with “read. […] Compound cytotoxicity and the corresponding CC50 values was determined using the same protocol as described in the antiviral assay (Test A) except that uninfected cells were used.” for “read.”

[2] = Human immunodeficiency virus 1, MT4, 120 h, inhibition of virus-induced cell killing, from dose response curve at 0.01 μM (10 nM), MT-4 cells, HIV-IIIb, 5 days, values normalized to 100%
[3] = Human immunodeficiency virus 1, MT4, 120 h, inhibition of virus-induced cell killing, from dose response curve at 0.20 μM (200 nM), MT-4 cells, HIV-IIIb, 5 days, values normalized to 100%
[4] = Human immunodeficiency virus 1, IIIB, MT4, 120 h

| Structure (SMILES) | inhibition at 0.01 µM (HIV-IIIb; [2]) [%] | inhibition at 0.2 µM (HIV-IIIb; [3]) [%] | CC50 at 5 days [1] [µM] | inhibition at 0.01 µM (HIV-IIIb; [4]) [%] | inhibition at 0.2 µM (HIV-IIIb; [4]) [%] |
| --- | --- | --- | --- | --- | --- |
| CC1(S(=O)(=O)Nc2nn(CC(F)F)c3c(-c4ccc(C#CC(C)(C)S(=O)(=O)C5CC5)nc4[C@H](Cc4cc(F)cc(F)c4)NC(=O)Cn4nc(C(F)F)c5c4C(F)(F)[C@@H]4C[C@H]54)ccc(Cl)c23)CC1 [Example 2F, N—((S)-1-(3-(4-chloro-1-(2,2-difluoroethyl)-3-((1-methylcyclopropane)-1-sulfonamido)-1H-indazol-7-yl)-6-(3-(cyclopropylsulfonyl)-3-methylbut-1-yn-1-yl)pyridin-2-yl)-2-(3,5-difluorophenyl)ethyl)-2-((3bS,4aR)-3-(difluoromethyl)-5,5-difluoro-3b,4,4a,5-tetrahydro-1H-cyclopropa[3,4]cyclopenta[1,2-c]pyrazol-1-yl)acetamide] | 100 | 100 | > 57.1 |  |  |
| Cn1nc(Nc2nnc(C(C)(C)O)o2)c2c(Cl)ccc(-c3ccc(C#CC(C)(C)S(=O)(=O)C4CC4)nc3[C@H](Cc3cc(F)cc(F)c3)NC(=O)Cn3nc(C(F)(F)F)c4c3C(F)(F)[C@@H]3C[C@H]43)c21 [Example 3F, N—((S)-1-(3-(4-chloro-3-((5-(2-hydroxypropan-2-yl)-1,3,4-oxadiazol-2-yl)amino)-1-methyl-1H-indazol-7-yl)-6-(3-(cyclopropylsulfonyl)-3-methylbut-1-yn-1-yl)pyridin-2-yl)-2-(3,5-difluorophenyl)ethyl)-2-((3bS,4aR)-5,5-difluoro-3-(trifluoromethyl)-3b,4,4a,5-tetrahydro-1H-cyclopropa[3,4]cyclopenta[1,2-c]pyrazol-1-yl)acetamide] | 100 | 100 | 21.8 |  |  |
| Cn1nc(NS(C)(=O)=O)c2c(Cl)ccc(-c3ccc(C#CC(C)(C)S(=O)(=O)C4CC4)nc3[C@H](Cc3cc(F)cc(F)c3)NC(=O)Cn3nc(C(F)F)c4c3C(F)(F)[C@@H]3C[C@H]43)c21 [Example 4] |  |  |  | 92 | 92 |
| CCS(=O)(=O)Nc1nn(C)c2c(-c3ccc(C#CC(C)(C)S(=O)(=O)C4CC4)nc3[C@H](Cc3cc(F)cc(F)c3)NC(=O)Cn3nc(C(F)F)c4c3C(F)(F)[C@@H]3C[C@H]43)ccc(Cl)c12 [Example 6] | 100 | 100 | > 57.1 |  |  |
| CCS(=O)(=O)Nc1nn(C)c2c(-c3ccc(C#CC(C)(C)S(=O)(=O)C4CC4)nc3[C@H](Cc3cc(F)cc(F)c3)NC(=O)Cn3nc(C(F)(F)F)c4c3C(F)(F)[C@@H]3C[C@H]43)ccc(Cl)c12 [Example 7] | 94 | 94 | > 57.1 |  |  |
| CC(C)(C#Cc1ccc(-c2ccc(Cl)c3c(NS(C)(=O)=O)nn(CC(F)F)c23)c([C@H](Cc2cc(F)cc(F)c2)NC(=O)Cn2nc(C(F)F)c3c2C(F)(F)[C@@H]2C[C@H]32)n1)S(=O)(=O)C1CC1 [Example 8] | 94 | 94 | > 57.1 |  |  |
| CCS(=O)(=O)Nc1nn(CC(F)F)c2c(-c3ccc(C#CC(C)(C)S(=O)(=O)C4CC4)nc3[C@H](Cc3cc(F)cc(F)c3)NC(=O)Cn3nc(C(F)F)c4c3C(F)(F)[C@@H]3C[C@H]43)ccc(Cl)c12 [Example 9] | 96 | 96 | > 57.1 |  |  |
| Cn1nc(Nc2nnc(C(C)(C)O)o2)c2c(Cl)ccc(-c3ccc(C#CC(C)(C)S(=O)(=O)C4CC4)nc3[C@H](Cc3cc(F)cc(F)c3)NC(=O)Cn3nc(C(F)F)c4c3C(F)(F)[C@@H]3C[C@H]43)c21 [Example 10] | 100 | 100 | 18.5 |  |  |
| CCS(=O)(=O)Nc1nn(CC(F)F)c2c(-c3ccc(C#CC(C)(C)S(=O)(=O)C4CC4)nc3[C@H](Cc3cc(F)cc(F)c3)NC(=O)Cn3nc(C(F)(F)F)c4c3C(F)(F)[C@@H]3C[C@H]43)ccc(Cl)c12 [Example 11] | 92 | 92 | > 57.1 |  |  |
| Cn1nc(NS(=O)(=O)C2CC2)c2c(Cl)ccc(-c3ccc(C#CC(C)(C)S(=O)(=O)C4CC4)nc3[C@H](Cc3cc(F)cc(F)c3)NC(=O)Cn3nc(C(F)F)c4c3C(F)(F)[C@@H]3C[C@H]43)c21 [Example 12] | 94 | 94 | > 57.1 |  |  |
| Cn1nc(NS(=O)(=O)C2CC2)c2c(Cl)ccc(-c3ccc(C#CC(C)(C)S(=O)(=O)C4CC4)nc3[C@H](Cc3cc(F)cc(F)c3)NC(=O)Cn3nc(C(F)(F)F)c4c3C(F)(F)[C@@H]3C[C@H]43)c21 [Example 13] | 100 | 100 | > 57.1 |  |  |
| Cn1nc(NS(=O)(=O)CC2CC2)c2c(Cl)ccc(-c3ccc(C#CC(C)(C)S(=O)(=O)C4CC4)nc3[C@H](Cc3cc(F)cc(F)c3)NC(=O)Cn3nc(C(F)F)c4c3C(F)(F)[C@@H]3C[C@H]43)c21 [Example 14] | 100 | 100 | > 57.1 |  |  |
| Cn1nc(NS(=O)(=O)CC2CC2)c2c(Cl)ccc(-c3ccc(C#CC(C)(C)S(=O)(=O)C4CC4)nc3[C@H](Cc3cc(F)cc(F)c3)NC(=O)Cn3nc(C(F)(F)F)c4c3C(F)(F)[C@@H]3C[C@H]43)c21 [Example 15] | 98 | 98 | > 57.1 |  |  |
| CC(C)(C#Cc1ccc(-c2ccc(Cl)c3c(NS(=O)(=O)C4CC4)nn(CC(F)F)c23)c([C@H](Cc2cc(F)cc(F)c2)NC(=O)Cn2nc(C(F)F)c3c2C(F)(F)[C@@H]2C[C@H]32)n1)S(=O)(=O)C1CC1 [Example 16] | 98 | 98 | > 57.1 |  |  |
| CC(C)(C#Cc1ccc(-c2ccc(Cl)c3c(NS(C)(=O)=O)nn(CC(F)(F)F)c23)c([C@H](Cc2cc(F)cc(F)c2)NC(=O)Cn2nc(C(F)F)c3c2C(F)(F)[C@@H]2C[C@H]32)n1)S(=O)(=O)C1CC1 [Example 17] | 98 | 98 | > 24 |  |  |
| CC(C)(C#Cc1ccc(-c2ccc(Cl)c3c(NS(C)(=O)=O)nn(C4COC4)c23)c([C@H](Cc2cc(F)cc(F)c2)NC(=O)Cn2nc(C(F)F)c3c2C(F)(F)[C@@H]2C[C@H]32)n1)S(=O)(=O)C1CC1 [Example 18] | 100 | 100 | 41.6 |  |  |
| CC(C)(C#Cc1ccc(-c2ccc(Cl)c3c(NS(C)(=O)=O)nn(C4COC4)c23)c([C@H](Cc2cc(F)cc(F)c2)NC(=O)Cn2nc(C(F)(F)F)c3c2C(F)(F)[C@@H]2C[C@H]32)n1)S(=O)(=O)C1CC1 [Example 19] | 97 | 97 | > 57.1 |  |  |
| Cn1nc(NS(=O)(=O)C2(C)CC2)c2c(Cl)ccc(-c3ccc(C#CC(C)(C)S(=O)(=O)C4CC4)nc3[C@H](Cc3cc(F)cc(F)c3)NC(=O)Cn3nc(C(F)F)c4c3C(F)(F)[C@@H]3C[C@H]43)c21 [Example 20] | 89 | 89 | > 57.1 |  |  |
| Cn1nc(NS(=O)(=O)C2(C)CC2)c2c(Cl)ccc(-c3ccc(C#CC(C)(C)S(=O)(=O)C4CC4)nc3[C@H](Cc3cc(F)cc(F)c3)NC(=O)Cn3nc(C(F)(F)F)c4c3C(F)(F)[C@@H]3C[C@H]43)c21 [Example 21] | 100 | 100 | > 57.1 |  |  |
| CC1(S(=O)(=O)Nc2nn(CC(F)F)c3c(-c4ccc(C#CC(C)(C)S(=O)(=O)C5CC5)nc4[C@H](Cc4cc(F)cc(F)c4)NC(=O)Cn4nc(C(F)(F)F)c5c4C(F)(F)[C@@H]4C[C@H]54)ccc(Cl)c23)CC1 [Example 22] | 94 | 94 | > 57.1 |  |  |
| CC(C)(C#Cc1ccc(-c2ccc(Cl)c3c(NS(=O)(=O)C4CC4)nn(CC(F)F)c23)c([C@H](Cc2cc(F)cc(F)c2)NC(=O)Cn2nc(C(F)(F)F)c3c2C(F)(F)[C@@H]2C[C@H]32)n1)S(=O)(=O)C1CC1 [Example 23] | 100 | 100 | > 57.1 |  |  |
| CC(C)(C#Cc1ccc(-c2ccc(Cl)c3c(NS(=O)(=O)CC4CC4)nn(CC(F)F)c23)c([C@H](Cc2cc(F)cc(F)c2)NC(=O)Cn2nc(C(F)F)c3c2C(F)(F)[C@@H]2C[C@H]32)n1)S(=O)(=O)C1CC1 [Example 26] | 100 | 100 | > 57.1 |  |  |
| CC(C)(C#Cc1ccc(-c2ccc(Cl)c3c(NS(=O)(=O)CC4CC4)nn(CC(F)F)c23)c([C@H](Cc2cc(F)cc(F)c2)NC(=O)Cn2nc(C(F)(F)F)c3c2C(F)(F)[C@@H]2C[C@H]32)n1)S(=O)(=O)C1CC1 [Example 27] | 100 | 100 | > 57.1 |  |  |

From patent publication US11753399B2, “Therapeutic compounds” (Gilead Sciences, Inc., priority 2018, dated 2023)
